The source of these data is paper PMC4729890 (Frontiers in Molecular Neuroscience, 2016).

SMILES strings stand for the structures.

Assay [1] has as its target T1, ROS-GC1 (Bos taurus, UniProt P55203, F570S).
T1 construct: gene GUCY2D
The experiment in a line: biochemical.

The target of assay [2] is T2, ROS-GC1 (Bos taurus, UniProt P55203).
T2 construct: gene GUCY2D
As to the kind of experiment: biochemical.

T2 sequence (P55203 57-1110): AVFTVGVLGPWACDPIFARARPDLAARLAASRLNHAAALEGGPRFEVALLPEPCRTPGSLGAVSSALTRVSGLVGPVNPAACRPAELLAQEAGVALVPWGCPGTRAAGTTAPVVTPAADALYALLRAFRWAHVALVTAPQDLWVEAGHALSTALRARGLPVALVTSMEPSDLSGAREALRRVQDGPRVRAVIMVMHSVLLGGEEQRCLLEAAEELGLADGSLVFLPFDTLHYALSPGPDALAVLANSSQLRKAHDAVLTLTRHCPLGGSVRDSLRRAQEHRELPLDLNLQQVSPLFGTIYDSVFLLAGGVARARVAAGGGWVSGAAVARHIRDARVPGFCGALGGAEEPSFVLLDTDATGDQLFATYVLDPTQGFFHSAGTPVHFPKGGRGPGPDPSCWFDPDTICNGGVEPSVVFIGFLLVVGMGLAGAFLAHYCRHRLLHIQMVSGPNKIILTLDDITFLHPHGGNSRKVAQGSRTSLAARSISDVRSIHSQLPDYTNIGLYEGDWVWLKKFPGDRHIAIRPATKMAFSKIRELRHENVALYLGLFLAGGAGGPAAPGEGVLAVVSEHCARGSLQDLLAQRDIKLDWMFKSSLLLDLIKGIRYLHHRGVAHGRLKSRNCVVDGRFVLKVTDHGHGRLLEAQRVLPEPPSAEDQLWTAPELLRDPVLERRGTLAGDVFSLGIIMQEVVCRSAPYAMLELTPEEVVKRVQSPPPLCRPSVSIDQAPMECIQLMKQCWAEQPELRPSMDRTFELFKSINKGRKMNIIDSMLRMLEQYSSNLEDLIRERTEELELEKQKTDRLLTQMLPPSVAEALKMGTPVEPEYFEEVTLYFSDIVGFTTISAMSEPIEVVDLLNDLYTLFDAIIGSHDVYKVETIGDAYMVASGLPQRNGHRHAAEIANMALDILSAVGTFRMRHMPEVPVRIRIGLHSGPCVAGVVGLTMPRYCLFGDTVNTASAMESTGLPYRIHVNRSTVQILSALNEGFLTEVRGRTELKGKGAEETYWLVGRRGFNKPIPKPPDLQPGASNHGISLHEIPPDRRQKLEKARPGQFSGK
T1 sequence (P55203 57-1110 F570S): as the sequence (P55203 57-1110) above, with F514S counted along it

On to `O=C(O)O` [bicarbonate], for which the concentration for a half-maximal effect (EC50) at ROS-GC1 [1] stood at 25 mM; at ROS-GC1 [2] it was 16 mM.

What is called EC50 is the concentration needed to bring the measured effect to its halfway point. Low readings indicate an effect from little substance, high ones a need for much substance.
